Experimental data taken from patent publication US20180078916A1, “LIGNIN-BASED SURFACTANTS” (CARNEGIE MELLON UNIVERSITY, priority 2015, published 2018).

System: corn plants
Test: clethodim application to corn plants with tank-mix adjuvants, % inhibition versus untreated control plants
Format: in vivo
Settings: clethodim 1 fluid ounce/acre without tank-mix adjuvants, 7 days following treatment
Excerpt: Various surfactants are used as adjuvants for agrochemicals to enhance deposition and penetration through plant surfaces. Two commercial tank-mix adjuvant systems that may be used for comparison are PRIME OIL® and SUPERB® HC (available from Winfield Solutions, LLC of Shoreview, Minn.), which are high surfactant oil concentrates. Representative studied were based on delivery of clethodim at 1 fluid ounce/acre, a commercial herbicide that inhibits growth of certain plants. A measure of effectiveness was the % inhibition (with 0% being no inhibition) compared to untreated control plants. Photographs (a)-(e) of FIG. 11 provide images of corn plants (corn being a common contaminant crop in soybean fields) treated with different formulations 7 days after treatment. Comparatively good results are obtained with clethodim and KLPEG900. Lignin adjuvant activity appeared to be higher at 0.05% v/v that 0.1% v/v.
FIG. 12 illustrates a graph wherein % inhibition is plotted for the different formulations 7 days following treatment.

CCSC(C)CC1CC(=O)C(/C(CC)=N/OC/C=C/Cl)=C(O)C1 (stereo not shown) [Clethodim, clethodim]
% inhibition: 54.4%
